ChEMBL document CHEMBL1201862, “PubChem BioAssay data set” (2004)
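In this assay, cells in 96-well plates receive the compound at five concentrations for 48 hours. Endpoints are linearly interpolated between the surrounding concentrations. GI50 is the concentration that inhibits growth by half.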 Active and inactive are the calls of the source. Rule as the data show it: active = GI50 up to about 1.1 µM and inactive = higher.

Legend:
Assay in all cases: NCI anticancer screen, dose series, 48 h
[1] = system: CAKI-1
[2] = system: HCC 2998
[3] = system: HT-29
[4] = system: K562
[5] = system: LOX IMVI
[6] = system: OVCAR-5
[7] = system: SF-268
[8] = system: SF-539
[9] = system: SK-MEL-2
[10] = system: SK-MEL-5
[11] = system: SN12C
[12] = system: SNB-75
[13] = system: SW-620
[14] = system: TK-10
[15] = system: NCI-H226

Measured: GI50

COC(=O)c1nc(N)nc(O)c1CCCCCc1c(O)nc(N)nc1C(=O)OC
inactive: [1] > 50 µM | [2] > 50 µM | [3] > 50 µM | [4] > 50 µM | [5] > 50 µM | [6] > 50 µM | [7] > 50 µM | [8] > 50 µM | [9] > 50 µM | [10] > 50 µM | [11] > 50 µM | [12] > 50 µM | [13] > 50 µM | [14] > 50 µM

O=C1OC(=O)C2C1C1C(c3ccccc3)=C(c3ccccc3)C2(O)C2C(=O)OC(=O)C12 (centres undefined)
inactive: [1] > 100 µM | [2] > 100 µM | [3] 46.9 µM | [4] 45.1 µM | [15] > 100 µM | [6] > 100 µM | [7] > 100 µM | [9] > 100 µM | [11] 96.2 µM | [12] 27.9 µM | [13] 80.7 µM | [14] > 100 µM

CCOC(=O)/C(C(=O)c1ccccc1)=C1/NCCN1C
inactive: [1] > 100 µM | [2] > 100 µM | [3] > 100 µM | [4] > 100 µM | [5] > 100 µM | [15] > 100 µM | [6] > 100 µM | [7] > 100 µM | [8] 10 µM | [9] > 100 µM | [10] > 100 µM | [11] > 100 µM | [13] > 100 µM

Cc1nc2nn(C)cc2c(=O)n1/N=C/c1ccccc1
inactive: [2] > 100 µM | [3] > 100 µM | [4] > 100 µM | [5] > 100 µM | [15] > 100 µM | [6] > 100 µM | [7] > 100 µM | [8] > 100 µM | [9] > 100 µM | [10] > 100 µM | [11] > 100 µM | [12] > 100 µM | [13] > 100 µM | [14] > 100 µM

CC1=C(c2ccccc2)C(c2ccccc2)=C(c2ccccc2)C2(c3ccccc3)C(=O)C(C)CN12 (centres undefined)
inactive: [1] 57.3 µM | [2] > 100 µM | [3] 42.3 µM | [4] > 10 µM | [5] 58.7 µM | [15] 21 µM | [6] 49.9 µM | [7] > 100 µM | [8] 31.5 µM | [9] 95.7 µM | [10] 59 µM | [11] 41.7 µM | [12] 19.4 µM | [13] 79.1 µM

CCOc1ccc(Nc2nc(C)c(C(=O)/C=C/c3ccc(Cl)cc3Cl)s2)cc1
inactive: [1] 27.1 µM | [2] 23.9 µM | [3] 19.7 µM | [4] 33.2 µM | [5] 16.8 µM | [15] 18.2 µM | [6] 40.8 µM | [7] 24.7 µM | [8] 27.8 µM | [9] 24 µM | [10] 20 µM | [11] 19.3 µM | [12] 18.5 µM | [13] 20.6 µM | [14] 22.6 µM

Cc1ccc(NC(=O)CC/C(CC(=O)C(C)(C)C)=N/NC(=O)C(N)=O)cc1C
inactive: [1] > 100 µM | [2] > 100 µM | [3] > 100 µM | [4] > 100 µM | [15] > 100 µM | [6] > 100 µM | [7] > 100 µM | [8] > 100 µM | [9] > 100 µM | [10] > 100 µM | [11] > 100 µM | [12] > 100 µM | [13] > 100 µM | [14] > 100 µM

Cc1c(C)n(COCCO)c2ncnc(N)c12
inactive: [1] > 100 µM | [2] > 100 µM | [3] > 100 µM | [4] > 100 µM | [15] > 100 µM | [7] > 100 µM | [8] > 100 µM | [9] > 100 µM | [10] > 100 µM | [11] > 100 µM | [12] > 100 µM | [13] > 100 µM | [14] > 100 µM

O=C1C=CC(=O)c2c1ccc1c3ccccc3n(-c3ccccn3)c21
inactive: [2] > 100 µM | [3] 28.4 µM | [4] 4.98 µM | [15] 13.2 µM | [6] > 100 µM | [7] 31.7 µM | [8] 32 µM | [9] 45.4 µM | [11] 55.1 µM | [12] > 100 µM | [14] 16.7 µM

CN(C)c1ccc(/C=N\N2C(=O)c3ccccc3C2=O)cc1
inactive: [1] > 100 µM | [2] > 100 µM | [3] > 100 µM | [4] > 100 µM | [5] > 100 µM | [15] > 100 µM | [6] > 100 µM | [7] > 100 µM | [8] > 100 µM | [9] > 100 µM | [10] > 100 µM | [11] > 100 µM | [12] 40.9 µM | [13] > 100 µM | [14] > 100 µM

N#C/C(=C/c1ccsc1)C(=O)c1ccccc1
inactive: [1] > 100 µM | [2] > 100 µM | [3] > 100 µM | [4] > 100 µM | [5] > 100 µM | [15] > 100 µM | [6] > 100 µM | [7] > 100 µM | [8] > 100 µM | [9] > 100 µM | [10] > 100 µM | [11] > 100 µM | [12] > 100 µM | [13] > 100 µM | [14] > 100 µM

C[C@]12Cc3conc3C(O)=C1CC[C@@H]1C2CC[C@@]2(C)C1CC[C@]2(C)O (some centres undefined)
inactive: [2] 21.1 µM | [3] 20.6 µM | [4] 3.97 µM | [5] 1.79 µM | [15] 14.8 µM | [6] 29.2 µM | [7] 28.8 µM | [8] 21.8 µM | [9] 14.3 µM | [10] 13.6 µM | [11] 33 µM | [12] 10.2 µM | [13] 21.1 µM | [14] 24 µM

COC(=O)CCC(=O)CC(=O)C(=O)Nc1ccc(F)cc1
inactive: [1] > 100 µM | [2] > 100 µM | [3] > 100 µM | [4] > 100 µM | [5] > 100 µM | [15] > 100 µM | [6] > 100 µM | [7] > 100 µM | [8] > 100 µM | [9] > 100 µM | [10] > 100 µM | [11] > 100 µM | [12] > 100 µM | [13] > 100 µM | [14] > 100 µM

COc1ccc2c(CCNC(=O)/C=C/c3ccccc3)c(C(C)=O)[nH]c2c1[N+](=O)[O-]
inactive: [1] 5.28 µM | [2] 20 µM | [3] 4.99 µM | [4] 4.49 µM | [5] 5.64 µM | [15] 20.9 µM | [6] > 10 µM | [7] 4.26 µM | [8] 9.86 µM | [9] 17.4 µM | [11] 42.4 µM | [13] 5.38 µM

COC(=O)C1=C(C(=O)OC)C2(C(=O)OC)OC1(OC)C(C1(C(=O)OC)C(C(=O)OC)=C1C(=O)OC)=C2C(=O)OC (centres undefined)
inactive: [2] > 100 µM | [3] > 100 µM | [4] > 100 µM | [5] > 100 µM | [15] > 100 µM | [6] > 100 µM | [7] > 100 µM | [8] > 100 µM | [9] > 100 µM | [10] > 100 µM | [11] > 100 µM | [12] > 100 µM | [13] > 100 µM | [14] > 100 µM

O=S1(=O)NN=C(NCc2ccc(Cl)cc2)c2ccccc21
inactive: [1] > 100 µM | [2] > 100 µM | [3] > 100 µM | [4] 38 µM | [5] 69 µM | [15] > 100 µM | [6] > 100 µM | [7] > 100 µM | [8] > 100 µM | [9] > 100 µM | [10] > 100 µM | [11] > 100 µM | [13] > 100 µM

C=CC1=CSNN1
inactive: [1] > 100 µM | [2] > 100 µM | [3] > 100 µM | [4] > 100 µM | [5] > 100 µM | [6] > 100 µM | [7] > 100 µM | [8] > 100 µM | [9] > 100 µM | [10] > 100 µM | [11] > 100 µM | [12] > 100 µM | [13] > 100 µM | [14] > 100 µM

Cc1[nH]c(O)nc1C(=O)c1ccc(-n2ccnc2)cc1
inactive: [1] > 100 µM | [2] > 100 µM | [3] > 100 µM | [4] > 100 µM | [5] > 100 µM | [15] > 100 µM | [6] > 100 µM | [7] > 100 µM | [8] > 100 µM | [9] > 100 µM | [10] > 100 µM | [11] > 100 µM | [12] > 100 µM | [13] > 100 µM

O=C(O)CN(c1ccc(F)cc1)S(=O)(=O)c1ccccc1
inactive: [1] > 100 µM | [3] > 100 µM | [4] > 100 µM | [5] > 100 µM | [15] > 100 µM | [6] > 100 µM | [7] > 100 µM | [8] > 100 µM | [9] > 100 µM | [10] > 100 µM | [11] > 100 µM | [12] > 100 µM | [13] > 100 µM | [14] > 100 µM

O=C1c2ccccc2C(=O)c2c(O)ccc(O)c21 [QUINIZARIN]
inactive: [1] > 100 µM | [2] 81.1 µM | [3] 45.3 µM | [4] > 100 µM | [5] > 100 µM | [6] > 100 µM | [7] > 100 µM | [8] > 100 µM | [9] 79.8 µM | [10] 63.1 µM | [11] > 100 µM | [12] > 100 µM | [13] 93.8 µM | [14] > 100 µM
